The test system of one assay is KB. The assay can be described thus: Cytotoxicity against human KB cells by colorimetric method. It counts as functional, cell-based.
The subject of the next assay is NCI-H187. In words: Cytotoxicity against human NCI-H187 cells by colorimetric method. Format: functional, cell-based.
Assay [1] can be described thus: Cytotoxicity against human BC cells by colorimetric method. It counts as functional, cell-based.
The test system of the next assay is Vero. In words: Cytotoxicity against african green monkey Vero cells by colorimetric method. Format: cell-based. The note with it: Chlorocebus sabaeus.

The structures appear in SMILES notation. ≈ marks a conversion by molar mass, not a printed value. Calls of active or inactive are those of the source. The calls are words filed in the database; no cut-off is given here. Bounds are passed on as bounds.

With `CC1(C)CC[C@]2(C(=O)O)CC[C@]3(C)C(=CC[C@@H]4[C@@]5(C)CC[C@H](O[C@@H]6OC[C@H](O)[C@H](O)[C@H]6O)[C@@](C)(CO)[C@@H]5CC[C@]43C)[C@@H]2C1`, the result with KB and in the assay on NCI-H187 was inactive.
On to `COc1cc(C[C@@H](CO)[C@H](CO)Cc2ccc(O)c(OC)c2)ccc1O` [(+)-SECOISOLARICIRESINOL], for which the IC50 (in the assay with KB; in assay [1]; in the assay with NCI-H187) was greater than 5 mg/L throughout.
Turning to `CC(=O)O[C@H]1CO[C@@H](O[C@H]2CC[C@@]3(C)[C@@H](CC[C@]4(C)[C@@H]3CC=C3[C@@H]5CC(C)(C)CC[C@]5(C(=O)O)CC[C@]34C)[C@]2(C)CO)[C@H](O)[C@H]1O`, the outcome in the assay with KB and in the assay on NCI-H187 was inactive. Further, the IC50 in assay [1] worked out at 3.6 mg/L (≈ 5.57 µM); with Vero it was 10.7 mg/L (≈ 16.5 µM).
As for `CC1(C)CC[C@]2(C(=O)O)CC[C@]3(C)C(=CC[C@@H]4[C@@]5(C)CC[C@H](O[C@@H]6OC[C@H](O)[C@H](O)[C@H]6O)C(C)(C)[C@@H]5CC[C@]43C)[C@@H]2C1`, the outcome in the assay on KB was inactive. Besides, the values for the IC50 (in assay [1]; in the assay on NCI-H187; in the assay on Vero) were 1.7 mg/L (≈ 2.89 µM), 3.2 mg/L (≈ 5.43 µM) and 2.8 mg/L (≈ 4.76 µM), respectively.
For `CC(=O)O[C@@H]1[C@@H](O)[C@H](O[C@H]2CC[C@@]3(C)[C@@H](CC[C@]4(C)[C@@H]3CC=C3[C@@H]5CC(C)(C)CC[C@]5(C(=O)O)CC[C@]34C)[C@]2(C)CO)OC[C@@H]1O`, the result with KB and with NCI-H187 was inactive.
Take `O=C1C=C2C=C[C@@H](O)C[C@H]2O1` [MENISDAURILIDE]: the IC50 (in the assay with KB; in assay [1]; in the assay on NCI-H187) was greater than 5 mg/L throughout.
Turning to `OC[C@H](Cc1ccc2c(c1)OCO2)[C@H](CO)Cc1ccc2c(c1)OCO2` [DIHYDROCUBEBIN], the IC50 (with KB; in assay [1]; in the assay on NCI-H187) was greater than 5 mg/L throughout.
Take `CC(=O)O[C@H]1[C@H](O[C@H]2CC[C@@]3(C)[C@@H](CC[C@]4(C)[C@@H]3CC=C3[C@@H]5CC(C)(C)CC[C@]5(C(=O)O)CC[C@]34C)[C@]2(C)CO)OC[C@H](O)[C@@H]1O`: the result in the assay on NCI-H187 was inactive.
Regarding `CC(=O)OC[C@@]1(C)[C@@H]2CC[C@]3(C)[C@H](CC=C4[C@@H]5CC(C)(C)CC[C@]5(C(=O)O)CC[C@]43C)[C@@]2(C)CC[C@@H]1O[C@@H]1OC[C@H](OC(C)=O)[C@H](OC(C)=O)[C@H]1OC(C)=O`, the half-maximal inhibitory concentration (IC50) with KB came out at 3.7 mg/L (≈ 4.79 µM); in assay [1], 3.6 mg/L (≈ 4.66 µM); in the assay on NCI-H187 it was 2.2 mg/L (≈ 2.85 µM).
As for `CC(=O)O[C@@H]1[C@@H](OC(C)=O)[C@H](O[C@H]2CC[C@]3(C)[C@H]4CC=C5[C@@H]6CC(C)(C)CC[C@]6(C(=O)O)CC[C@@]5(C)[C@]4(C)CC[C@H]3C2(C)C)OC[C@@H]1OC(C)=O`, the result in the assay with KB and in the assay with NCI-H187 was inactive. In addition, the IC50 came to 3.3 mg/L (≈ 4.62 µM) in assay [1] and 3.2 mg/L (≈ 4.48 µM) with Vero.
As to `CC1(C)CC[C@]2(C(=O)O)CC[C@]3(C)C(=CC[C@@H]4[C@@]5(C)CC[C@H](O)[C@@](C)(CO)[C@@H]5CC[C@]43C)[C@@H]2C1` [HEDERAGENIN], the IC50 (in the assay with KB; in assay [1]; in the assay with NCI-H187) was greater than 5 mg/L throughout.
With `Cc1c2ccncc2c(C)c2c1[nH]c1ccccc12` [ELLIPTECINE], the half-maximal inhibitory concentration (IC50) is 0.26 mg/L (≈ 1.06 µM) in the assay on KB, 0.36 mg/L (≈ 1.46 µM) in assay [1] and 0.32 mg/L (≈ 1.3 µM) in the assay on NCI-H187.

Source of the values: ChEMBL document CHEMBL1158802, “Bioactive constituents of the leaves of Phyllanthus polyphyllus var. siamensis” (J Nat Prod, 2005).
